The results in this text go back to ChEMBL document CHEMBL4020722, “Synthesis and evaluation of a series of pyridine and pyrimidine derivatives as type II c-Met inhibitors” (Bioorg Med Chem, 2017).

pIC50: −log10 of the molar value.

The subject of one test is EBC-1. Nature of the test: cells. The settings on record: Homo sapiens, EBC-1, 72 h.
In the next test the test system is HepG2. Nature of the test: cells. The settings on record: Homo sapiens, HepG2, 72 h.
In test [1] the target is T1, Hepatocyte growth factor receptor (Homo sapiens, UniProt P08581). Nature of the test: Inhibition of recombinant c-MET (unknown origin) using poly (Glu, Tyr) 4:1 as substrate after 45 mins by ELISA.
T1 sequence (P08581 whole entry): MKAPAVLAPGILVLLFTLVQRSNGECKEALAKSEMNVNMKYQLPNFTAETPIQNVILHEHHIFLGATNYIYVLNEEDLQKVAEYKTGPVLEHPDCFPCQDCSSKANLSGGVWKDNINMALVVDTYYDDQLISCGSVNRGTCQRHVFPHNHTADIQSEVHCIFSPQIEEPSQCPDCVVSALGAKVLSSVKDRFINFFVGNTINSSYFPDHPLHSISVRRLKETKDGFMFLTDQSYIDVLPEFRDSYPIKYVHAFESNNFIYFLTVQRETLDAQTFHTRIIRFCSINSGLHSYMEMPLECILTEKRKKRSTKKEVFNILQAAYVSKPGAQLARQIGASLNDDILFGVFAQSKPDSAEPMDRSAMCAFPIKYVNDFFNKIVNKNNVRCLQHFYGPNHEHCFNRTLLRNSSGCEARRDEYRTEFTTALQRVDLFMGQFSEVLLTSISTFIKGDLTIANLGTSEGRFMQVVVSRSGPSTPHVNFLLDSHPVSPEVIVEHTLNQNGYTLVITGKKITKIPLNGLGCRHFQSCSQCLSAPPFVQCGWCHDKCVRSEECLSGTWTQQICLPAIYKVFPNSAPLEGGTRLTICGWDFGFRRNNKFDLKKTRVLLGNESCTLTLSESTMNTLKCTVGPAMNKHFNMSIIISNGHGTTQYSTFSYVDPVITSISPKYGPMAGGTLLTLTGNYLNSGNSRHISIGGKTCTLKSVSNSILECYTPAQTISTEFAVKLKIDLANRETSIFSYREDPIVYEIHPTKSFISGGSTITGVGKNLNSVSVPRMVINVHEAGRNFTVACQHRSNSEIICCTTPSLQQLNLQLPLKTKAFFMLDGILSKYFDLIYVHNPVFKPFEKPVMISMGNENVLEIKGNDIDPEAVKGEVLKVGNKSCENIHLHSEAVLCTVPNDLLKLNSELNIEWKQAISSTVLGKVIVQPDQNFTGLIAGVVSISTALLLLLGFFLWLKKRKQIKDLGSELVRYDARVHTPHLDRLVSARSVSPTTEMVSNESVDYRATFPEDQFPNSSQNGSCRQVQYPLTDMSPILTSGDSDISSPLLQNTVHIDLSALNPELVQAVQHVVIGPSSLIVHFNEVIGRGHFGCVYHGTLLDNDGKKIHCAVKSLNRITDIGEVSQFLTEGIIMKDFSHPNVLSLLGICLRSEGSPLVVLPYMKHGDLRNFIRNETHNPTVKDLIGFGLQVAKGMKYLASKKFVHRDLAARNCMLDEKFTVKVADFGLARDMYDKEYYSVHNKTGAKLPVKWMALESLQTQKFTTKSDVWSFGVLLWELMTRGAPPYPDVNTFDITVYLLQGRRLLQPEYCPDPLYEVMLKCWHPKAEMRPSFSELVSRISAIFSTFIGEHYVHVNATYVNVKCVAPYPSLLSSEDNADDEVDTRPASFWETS
The target in test [2] is Platelet-derived growth factor receptor alpha (Homo sapiens, UniProt P16234). The test can be described thus: Inhibition of PDGFRalpha (unknown origin) by HTRF method.
Sequence of Platelet-derived growth factor receptor alpha (P16234 whole entry): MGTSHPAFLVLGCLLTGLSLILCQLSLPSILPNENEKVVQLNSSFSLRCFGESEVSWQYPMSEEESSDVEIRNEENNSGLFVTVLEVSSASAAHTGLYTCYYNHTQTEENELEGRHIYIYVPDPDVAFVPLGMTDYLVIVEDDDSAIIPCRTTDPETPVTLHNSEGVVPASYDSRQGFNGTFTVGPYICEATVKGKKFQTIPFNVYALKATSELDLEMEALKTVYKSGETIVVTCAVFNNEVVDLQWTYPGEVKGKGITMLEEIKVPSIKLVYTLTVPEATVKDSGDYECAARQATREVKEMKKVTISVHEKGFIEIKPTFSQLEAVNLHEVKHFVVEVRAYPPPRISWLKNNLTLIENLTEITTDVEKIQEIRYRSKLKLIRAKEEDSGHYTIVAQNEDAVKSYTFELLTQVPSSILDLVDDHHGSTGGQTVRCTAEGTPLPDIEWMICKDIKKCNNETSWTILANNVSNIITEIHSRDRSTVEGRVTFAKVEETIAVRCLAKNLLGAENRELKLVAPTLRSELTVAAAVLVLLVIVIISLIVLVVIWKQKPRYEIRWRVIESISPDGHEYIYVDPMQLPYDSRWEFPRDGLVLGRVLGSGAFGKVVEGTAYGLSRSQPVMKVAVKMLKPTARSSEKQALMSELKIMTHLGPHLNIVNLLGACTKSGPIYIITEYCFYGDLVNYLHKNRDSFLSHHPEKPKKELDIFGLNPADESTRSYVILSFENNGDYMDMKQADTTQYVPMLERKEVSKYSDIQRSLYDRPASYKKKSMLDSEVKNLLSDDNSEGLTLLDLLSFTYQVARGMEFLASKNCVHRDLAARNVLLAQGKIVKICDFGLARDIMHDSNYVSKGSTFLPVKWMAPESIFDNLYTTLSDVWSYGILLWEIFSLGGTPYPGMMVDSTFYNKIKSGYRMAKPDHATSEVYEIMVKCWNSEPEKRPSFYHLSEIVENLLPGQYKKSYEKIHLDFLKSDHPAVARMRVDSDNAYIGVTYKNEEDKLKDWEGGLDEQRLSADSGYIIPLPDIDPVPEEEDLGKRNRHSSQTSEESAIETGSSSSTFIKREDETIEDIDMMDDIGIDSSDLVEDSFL
The target in test [3] is Vascular endothelial growth factor receptor 2 (Homo sapiens, UniProt P35968).
Test [4] deals with T1, Hepatocyte growth factor receptor. As to conditions: 0.1 mM.
Test [5] concerns the target Mast/stem cell growth factor receptor Kit (Homo sapiens, UniProt P10721). The test can be described thus: Inhibition of KIT (unknown origin) by HTRF method. For orientation: In TR-FRET formats the signal depends on donor and acceptor labels being close together.
Test [6] has as its target Proto-oncogene tyrosine-protein kinase receptor Ret (Homo sapiens, UniProt P07949). The test can be described thus: Inhibition of RET (unknown origin) by HTRF method.
The target of test [7] is Epidermal growth factor receptor (Homo sapiens, UniProt P00533). The test can be described thus: Inhibition of EGFR (unknown origin) by HTRF method.
Sequence of Epidermal growth factor receptor (P00533 whole entry): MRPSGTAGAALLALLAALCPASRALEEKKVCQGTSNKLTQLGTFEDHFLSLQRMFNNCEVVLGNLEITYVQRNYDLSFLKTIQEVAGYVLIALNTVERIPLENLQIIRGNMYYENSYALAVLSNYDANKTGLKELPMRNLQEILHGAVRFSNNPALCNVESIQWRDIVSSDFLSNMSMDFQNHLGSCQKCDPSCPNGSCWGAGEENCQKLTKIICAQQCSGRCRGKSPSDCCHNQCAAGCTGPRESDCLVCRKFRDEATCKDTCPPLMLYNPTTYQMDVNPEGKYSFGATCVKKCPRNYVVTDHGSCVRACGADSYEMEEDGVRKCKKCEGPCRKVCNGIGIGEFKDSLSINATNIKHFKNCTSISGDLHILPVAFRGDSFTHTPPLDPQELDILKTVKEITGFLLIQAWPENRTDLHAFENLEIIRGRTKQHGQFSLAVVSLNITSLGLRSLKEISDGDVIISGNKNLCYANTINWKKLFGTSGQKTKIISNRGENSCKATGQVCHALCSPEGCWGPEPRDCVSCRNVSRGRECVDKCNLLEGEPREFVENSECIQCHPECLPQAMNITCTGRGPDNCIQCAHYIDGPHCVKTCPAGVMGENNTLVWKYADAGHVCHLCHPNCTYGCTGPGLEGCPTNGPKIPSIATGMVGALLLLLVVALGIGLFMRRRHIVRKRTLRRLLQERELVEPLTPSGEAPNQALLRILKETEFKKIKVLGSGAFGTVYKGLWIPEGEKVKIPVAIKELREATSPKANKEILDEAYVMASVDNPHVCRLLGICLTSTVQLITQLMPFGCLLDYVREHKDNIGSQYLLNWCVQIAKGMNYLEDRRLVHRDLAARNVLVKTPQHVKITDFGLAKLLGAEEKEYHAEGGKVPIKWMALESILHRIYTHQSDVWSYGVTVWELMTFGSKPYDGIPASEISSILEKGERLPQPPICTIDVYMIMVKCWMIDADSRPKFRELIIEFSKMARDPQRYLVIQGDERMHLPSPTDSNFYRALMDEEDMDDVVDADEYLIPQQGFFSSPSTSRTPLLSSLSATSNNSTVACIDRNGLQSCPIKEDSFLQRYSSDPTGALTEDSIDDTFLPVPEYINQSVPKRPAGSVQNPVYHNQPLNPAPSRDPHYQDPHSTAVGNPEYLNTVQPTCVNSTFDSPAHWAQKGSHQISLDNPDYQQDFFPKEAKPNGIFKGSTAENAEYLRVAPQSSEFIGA
The target in test [8] is T2, Receptor-type tyrosine-protein kinase FLT3 (Homo sapiens, UniProt P36888).
T2 sequence (P36888 whole entry): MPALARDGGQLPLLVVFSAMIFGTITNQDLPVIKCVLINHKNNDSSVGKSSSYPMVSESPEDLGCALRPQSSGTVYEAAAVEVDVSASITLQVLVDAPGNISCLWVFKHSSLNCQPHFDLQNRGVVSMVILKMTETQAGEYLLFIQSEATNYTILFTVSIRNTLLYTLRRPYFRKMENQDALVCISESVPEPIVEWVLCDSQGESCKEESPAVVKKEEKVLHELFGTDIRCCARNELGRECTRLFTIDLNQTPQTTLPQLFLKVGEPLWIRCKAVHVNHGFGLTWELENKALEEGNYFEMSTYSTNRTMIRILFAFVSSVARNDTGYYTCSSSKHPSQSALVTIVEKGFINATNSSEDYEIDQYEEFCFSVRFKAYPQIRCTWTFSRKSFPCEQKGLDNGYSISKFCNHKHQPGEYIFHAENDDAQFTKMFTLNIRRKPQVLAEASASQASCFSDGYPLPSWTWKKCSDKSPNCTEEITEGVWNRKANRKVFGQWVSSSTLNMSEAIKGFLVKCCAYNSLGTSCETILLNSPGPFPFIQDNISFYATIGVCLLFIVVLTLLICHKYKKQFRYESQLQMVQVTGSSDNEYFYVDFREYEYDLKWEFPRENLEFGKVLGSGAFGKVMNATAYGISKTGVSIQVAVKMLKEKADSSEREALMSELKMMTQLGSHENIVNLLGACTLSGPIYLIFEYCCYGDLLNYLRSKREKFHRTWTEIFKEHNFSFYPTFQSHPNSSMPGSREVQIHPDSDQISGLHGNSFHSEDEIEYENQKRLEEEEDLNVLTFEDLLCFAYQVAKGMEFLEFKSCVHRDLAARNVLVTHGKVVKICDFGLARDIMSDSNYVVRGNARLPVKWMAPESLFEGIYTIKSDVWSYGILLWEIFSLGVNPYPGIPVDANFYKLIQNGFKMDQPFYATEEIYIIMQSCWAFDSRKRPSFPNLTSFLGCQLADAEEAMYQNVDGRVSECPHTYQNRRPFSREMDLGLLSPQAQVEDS
Nature of the test: Inhibition of FLT3 (unknown origin) by HTRF method.

Sequence of Mast/stem cell growth factor receptor Kit (P10721 whole entry): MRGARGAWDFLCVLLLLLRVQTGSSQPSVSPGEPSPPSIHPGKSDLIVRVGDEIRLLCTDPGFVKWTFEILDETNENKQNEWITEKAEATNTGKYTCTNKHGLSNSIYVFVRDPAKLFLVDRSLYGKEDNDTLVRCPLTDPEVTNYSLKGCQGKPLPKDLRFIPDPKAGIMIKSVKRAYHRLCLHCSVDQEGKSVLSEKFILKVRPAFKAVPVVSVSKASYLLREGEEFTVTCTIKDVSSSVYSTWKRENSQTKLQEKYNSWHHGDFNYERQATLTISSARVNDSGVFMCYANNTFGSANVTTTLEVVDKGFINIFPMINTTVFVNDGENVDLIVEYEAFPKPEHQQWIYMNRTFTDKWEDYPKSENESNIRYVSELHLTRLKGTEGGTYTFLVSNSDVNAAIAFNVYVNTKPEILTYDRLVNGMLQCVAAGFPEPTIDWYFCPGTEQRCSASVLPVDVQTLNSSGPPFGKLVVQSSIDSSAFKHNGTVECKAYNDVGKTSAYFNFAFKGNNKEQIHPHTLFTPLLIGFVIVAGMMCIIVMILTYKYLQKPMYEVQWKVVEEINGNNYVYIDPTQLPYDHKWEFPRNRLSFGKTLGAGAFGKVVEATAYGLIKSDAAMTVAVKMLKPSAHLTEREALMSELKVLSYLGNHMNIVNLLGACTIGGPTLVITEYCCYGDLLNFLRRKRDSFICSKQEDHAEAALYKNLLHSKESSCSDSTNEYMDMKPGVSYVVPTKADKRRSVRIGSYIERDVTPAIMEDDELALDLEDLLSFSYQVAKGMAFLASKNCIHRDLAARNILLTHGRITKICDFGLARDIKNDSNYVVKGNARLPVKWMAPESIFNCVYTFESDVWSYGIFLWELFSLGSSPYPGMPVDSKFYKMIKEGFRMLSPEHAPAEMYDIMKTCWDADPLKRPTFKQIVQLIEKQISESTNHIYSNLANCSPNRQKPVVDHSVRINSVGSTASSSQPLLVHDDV

Consider `Nc1nccc(Oc2ccc(NC(=O)C3(C(=O)Nc4ccc(Cl)cc4)CC3)cc2F)c1Cl`, for which the pIC50 in the test on EBC-1 was 6.01; in the test on HepG2, less than 6.00.
`COc1cccc2c1C(=O)c1c(O)c3c(c(O)c1C2=O)C[C@@](O)(C(=O)CO)C[C@@H]3O[C@H]1C[C@H](N)[C@H](O)[C@H](C)O1` [DOXORUBICIN]: the results for the pIC50 with EBC-1 and in the test on HepG2 were 6.52 and 7.01, respectively.
For the molecule `Nc1nccc(Oc2ccc(NC(=O)C3(C(=O)Nc4cccc(F)c4)CC3)cc2F)c1Cl`, the negative-log IC50 (pIC50) with EBC-1 and in the test with HepG2 was less than 6.00 throughout.
Consider `Nc1nccc(Oc2ccc(NC(=O)C3(C(=O)Nc4ccc(F)cc4)CC3)cc2F)n1`, for which the pIC50 in the test on EBC-1 and in the test on HepG2 was less than 6.00 in each case.
As to `COc1ccc(NC(=O)C2(C(=O)Nc3ccc(Oc4cc(N)ncn4)c(F)c3)CC2)cc1`, in test [1], the pIC50 is less than 5.00.
For the molecule `Nc1nccc(Oc2ccc(NC(=O)C3(C(=O)NCc4ccc(F)cc4)CC3)cc2F)n1`, the pIC50 in [1] was less than 5.00.
Same read-out and setting: the result for `Nc1cc(Oc2ccc(NC(=O)C3(C(=O)NCc4ccc(F)cc4)CC3)cc2F)ncn1` reads less than 5.00.
`Nc1cc(Oc2ccc(NC(=O)C3(C(=O)Nc4ccc(Cl)cc4)CC3)cc2F)ncn1`: the pIC50 with EBC-1 and in the test on HepG2 was less than 6.00 each time.
On to `COc1cc2nccc(Oc3ccc(NC(=O)C4(C(=O)Nc5ccc(F)cc5)CC4)cc3)c2cc1OC` [CABOZANTINIB], for which the pIC50 in test [2] was less than 5.00.
As for `Nc1cc(Oc2ccc(NC(=O)C3(C(=O)Nc4ccc(F)cc4)CC3)cc2F)ncn1`, the pIC50 in the test on EBC-1 and in the test with HepG2 was less than 6.00 throughout.
`CCOc1ccn(-c2ccc(F)cc2)c(=O)c1C(=O)Nc1ccc(Oc2ccnc(N)c2Cl)c(F)c1` [BMS-777607]: the pIC50 in test [1] was 7.92; in the test on EBC-1 it was 6.79; in [2], 7.55.
As for `Nc1nccc(Oc2ccc(NC(=O)C3(C(=O)Nc4ccc(F)cc4)CC3)cc2F)c1Cl`, the pIC50 in [1] is 7.77; in the test on EBC-1, 6.89; in [3] it was 7.26; in [2], 6.76; in test [5], 6.55; in the test with HepG2 it was less than 6.00. The pIC50 in [6] is 6.41; in test [7] it was less than 6.00; in test [8], 5.65. In test [4], the inhibition amounted to 100%.

The term pIC50 denotes the negative decadic logarithm of the IC50, by convention in mol/L. What is called inhibition is the percentage by which the read-out fell short of the control. The low end stands for a response near the control, the high end for a response far below the control.
